Results from patent US10344014B2, “Amorphous form of tetracyclic compound” (Chugai Seiyaku Kabushiki Kaisha, priority 2014, dated 2019).

Tests used:
Assay type in all cases: physicochemical
[1] = Residual rate of principal drug by HPLC after storage (Test Example 5)
Description: The amorphous substances and the solid dispersions of 9-ethyl-6,6-dimethyl-8-(4-morpholin-4-yl-piperidin-1-yl)-11-oxo-6,11-dihydro-5H-benzo[b]carbazole-3-earbonitrile obtained in Examples 8 to 15 were tested under two conditions: i) they were stored in a thermostatic bath set at 40° C. for 3 months, and ii) they were stored in a thermostatic bath set at 40° C. and 75% RH for 3 months in an open state. Residual rates of the principal drugs were measured under following conditions of high performance liquid chromatography. It was concluded that the amorphous substances and the solid dispersions were chemically stable.
Detector: UV absorptiometer (measurement wavelength: 230 nm)
Column: stainless column of 4.6 mm in inner diameter and 15 cm in length, filled with 3.5 um of octadecylsilyl silica gel for liquid chromatography
Column temperature: fixed temperature about 35° C.
Mobile phase A: mixed solution of acetonitrile/trifluoroacetic acid (2000:1)
Mobile phase B: mixed solution of water/trifluoroacetic acid (2000:1)
Mobile phase supply: controlled concentration gradient with varying mixing ratio of mobile phases A and B as follows.

[2] = Intrinsic dissolution rate, USP chapter 1087 (Example 5)
Description: A test of measuring intrinsic dissolution rate (according to USP chapter 1087 “APPARENT […] DISSOLUTION-DISSOLUTION TESTING PROCEDURES FOR ROTATING DISK AND STATIONARY DISK”) was performed on a composition containing the amorphous and crystalline forms (form I crystals) of 9-ethyl-6,6-dimethyl-8-(4-morpholin-4-yl-piperidin-1-yl)-11-oxo-6,11-dihydro-5H-benzo[b]carbazole-3-carbonitrilemonohydrochloride at certain ratios. It was concluded that the dissolution rate was increased when the content of the amorphous was about 15% or higher.

[3] = Solubility by shake flask method, 37° C. (Example 6)
Description: Solubility of the amorphous form and form I crystals of 9-ethyl-6,6-dimethyl-8-(4-morpholin-4-yl-piperidin-1-yl)-11-oxo-6,11-dihydro-5H-benzo[b]carbazole-3-carbonitrilemonohydrochloride was examined using a shake flask method (37° C.).

[4] = Stability test of the amorphous form, X-ray powder diffraction after storage (Example 4); parameters: key to State of the amorphous form after storage (X-ray powder diffraction peak): ◯: no peak of diffraction angle; X: clear peak of diffraction angle
Description: The amorphous form of 9-ethyl-6,6-dimethyl-8-(4-morpholin-4-yl-piperidin-1-yl)-11-oxo-6,11-dihydro-5H-benzo[b]carbazole-3-carbonitrilemonohydrochloride was stored under a certain condition and transition of the state of the amorphous form of the test compound was analyzed using. X-ray power diffraction as in the Test example 1.

[5] = Acetate buffer pH 4.5, equilibration 1 hour
[6] = Acetate buffer pH 4.5, equilibration 24 hours, limit of quantitation 0.0004 mg/mL
[7] = First solution for dissolution test (Japanese Pharmacopoeia, 16th edition), equilibration 1 hour
[8] = First solution for dissolution test (Japanese Pharmacopoeia, 16th edition), equilibration 24 hours
[9] = Phosphate buffer pH 8.0, equilibration 1 hour, limit of quantitation 0.0004 mg/mL
[10] = Phosphate buffer pH 8.0, equilibration 24 hours, limit of quantitation 0.0004 mg/mL
[11] = Simulated intestinal fluid (SIFsp), equilibration 1 hour, limit of quantitation 0.0004 mg/mL
[12] = Simulated intestinal fluid (SIFsp), equilibration 24 hours, limit of quantitation 0.0004 mg/mL
[13] = Solution for dissolution test (4% Triton-X100 added to the first solution for dissolution test), equilibration 1 hour
[14] = Solution for dissolution test (4% Triton-X100 added to the first solution for dissolution test), equilibration 24 hours

| SMILES | Solubility [3, 5] | Solubility [3, 6] | Solubility [3, 7] | Solubility [3, 8] | Solubility [3, 9] | Solubility [3, 10] | Solubility [3, 11] | Solubility [3, 12] | Solubility [3, 13] | Solubility [3, 14] | Solubility ([3]; Water, equilibration 1 hour) | Solubility ([3]; Water, equilibration 24 hours) | other results |
| --- | --- | --- | --- | --- | --- | --- | --- | --- | --- | --- | --- | --- | --- |
| CCc1cc2c(cc1N1CCC(N3CCOCC3)CC1)C(C)(C)c1[nH]c3cc(C#N)ccc3c1C2=O [Example 8, 9-ethyl-6,6-dimethyl-8-(4-morpholin-4-yl-piperidin-1-yl)-11-oxo-6,11-dihydro-5H-benzo[b]carbazole-3-carbonitrile] |  |  |  |  |  |  |  |  |  |  |  |  | Retention rate after 3 months at 40° C. in 75 % RH ([1]; 40° C. and 75% RH, open state): 99.66; Retention rate after 3 months at 40° C. ([1]; thermostatic bath 40° C.): 99.60 |
| CCc1cc2c(cc1N1CCC(N3CCOCC3)CC1)C(C)(C)c1[nH]c3cc(C#N)ccc3c1C2=O.Cl [9-ethyl-6,6-dimethyl-8-(4-morpholin-4-yl-piperidin-1-yl)-11-oxo-6,11-dihydro-5H-benzo[b]carbazole-3-carbonitrilemonohydrochloride] |  |  |  |  |  |  |  |  |  |  |  |  | Intrinsic dissolution rate ([2]; Amount of amorphous 5.6%): 0.0065 mg/cm^2/min; Intrinsic dissolution rate ([2]; Amount of amorphous 9.8%): 0.0065 mg/cm^2/min; Intrinsic dissolution rate ([2]; Amount of amorphous 16.8%): 0.0112 mg/cm^2/min; Intrinsic dissolution rate ([2]; Amount of amorphous (%): 0 < Lower than detection limit): 0.0078 mg/cm^2/min |
| CCc1cc2c(cc1N1CCC(N3CCOCC3)CC1)C(C)(C)c1[nH]c3cc(C#N)ccc3c1C2=O.Cl [Amorphous, 9-ethyl-6,6-dimethyl-8-(4-morpholin-4-yl-piperidin-1-yl)-11-oxo-6,11-dihydro-5H-benzo[b]carbazole-3-carbonitrilemonohydrochloride] | 0.5 µg/mL | 0.4 µg/mL | 4.5 µg/mL | 2.5 µg/mL | <Lower than limit of | <Lower than limit of | <Lower than limit of | <Lower than limit of | 1150.6 µg/mL | 1155.2 µg/mL | 59.9 µg/mL | 39.3 µg/mL | Solubility compared with form I crystals (in words) ([3]; shake flask method): higher than that of the form I crystals; Physical stability in accelerated test (in words) ([4]; 6 months, 40° C. and 75% RH, sealed condition): hardly crystallized and physically stable; Physical stability in long-term stability test (in words) ([4]; 12 months, 30° C. and 75% RH, sealed condition): hardly crystallized and physically stable; State of the amorphous form after storage (X-ray powder diffraction peak) ([4]; 25° C./93% RH, Open, 1 month): X; State of the amorphous form after storage (X-ray powder diffraction peak) ([4]; 25° C./93% RH, Open, 3 months): X; State of the amorphous form after storage (X-ray powder diffraction peak) ([4]; 25° C./93% RH, Open, 6 months): X; State of the amorphous form after storage (X-ray powder diffraction peak) ([4]; 30° C./75% RH, Sealed, 3 months): ◯; State of the amorphous form after storage (X-ray powder diffraction peak) ([4]; 30° C./75% RH, Sealed, 6 months): ◯; State of the amorphous form after storage (X-ray powder diffraction peak) ([4]; 30° C./75% RH, Sealed, 12 months): ◯; State of the amorphous form after storage (X-ray powder diffraction peak) ([4]; 40° C./75% RH, Sealed, 1 month): ◯; State of the amorphous form after storage (X-ray powder diffraction peak) ([4]; 40° C./75% RH, Sealed, 3 months): ◯; State of the amorphous form after storage (X-ray powder diffraction peak) ([4]; 40° C./75% RH, Sealed, 6 months): ◯ |
| CCc1cc2c(cc1N1CCC(N3CCOCC3)CC1)C(C)(C)c1[nH]c3cc(C#N)ccc3c1C2=O.Cl [Form I crystal, 9-ethyl-6,6-dimethyl-8-(4-morpholin-4-yl-piperidin-1-yl)-11-oxo-6,11-dihydro-5H-benzo[b]carbazole-3-carbonitrilemonohydrochloride] | 0.4 µg/mL | <Lower than limit of | 1.2 µg/mL | 1.3 µg/mL | <Lower than limit of | <Lower than limit of | <Lower than limit of | <Lower than limit of | 364.1 µg/mL | 410.2 µg/mL | 28.6 µg/mL | 25.1 µg/mL |  |
